Experimental data taken from paper PMC11801715, “Activating PKC-ε induces HIV expression with improved tolerability” (PLOS Pathogens, 2025).

What was measured:
[1] = In vivo monkey study: tolerability, clinical pathology, histopathology; set-up: species or system rhesus macaque; conditions: male, rhesus monkey, in vivo; single IV infusion; read-out: maximum tolerated dose
Protocol: (§1) Male rhesus macaque monkeys (young adult to adult) were sourced from the Covance stock colony for conduct of in vivo studies at Covance Laboratories Inc. (Madison, Wisconsin, USA). Monkeys were administered a single dose of vehicle control (n = 3), 0.03, 0.1, 0.3, or 1 mg/kg of C-232A (n = 1) by intravenous infusion over 30 minutes using a sentinel approach. An additional 2 male monkeys were administered 0.3 mg/kg C232A after it was determined that this was the maximum tolerated dose level. Blood samples were collected through 24 hours postdose. Samples for PK (for measurement of C-232A concentration) and cytokine analysis were processed to plasma and shipped to Gilead Sciences. Activation of CD4^+ T cells was assessed by measuring CD69 expression levels in whole blood by flow cytometry (Covance Laboratories). Samples for clinical pathology were analyzed at Covance Laboratories for hematology, coagulation, and clinical chemistry panels. At unscheduled necropsy (1 mg/kg C-232A), tissues were preserved in 10% neutral-buffered formalin, embedded in paraffin, and processed to slides for staining with hematoxylin and eosin. Tissues were then evaluated independently (Experimental Pathology Laboratories, Inc).

rhesus macaques = assay: as above; set-up: species or system rhesus macaque
Protocol: as §1

[2] = tested on: plasma cytokines/chemokines; assay: Cytokine/chemokine analysis in plasma; type: in vivo, rhesus macaque; conditions: 4 hours post dose
Source text: For plasma cytokine analysis (S1 Table), whole blood was collected into K2EDTA tubes from C-232A and vehicle dosed rhesus macaques (prebleed and various post-dose time points) and plasma was isolated and stored at −80^ºC. Cytokine/chemokine analysis in plasma samples was accomplished using a nonhuman primate-specific 37 Plex ProcartaPlex immunoassay system (Thermo Fisher Scientific) according to the manufacturer’s instructions. Samples were then read on a Luminex 200 (Luminex) platform and analyzed using Bio-plex Manager software (Bio-Rad).

PKC-θ = PKC-θ (Homo sapiens, UniProt Q04759); assay: Immunofluorescence of endogenous PKC in Jurkat cells; type: cell-based; conditions: 30 minutes
Sequence of PKC-θ (Q04759 whole entry): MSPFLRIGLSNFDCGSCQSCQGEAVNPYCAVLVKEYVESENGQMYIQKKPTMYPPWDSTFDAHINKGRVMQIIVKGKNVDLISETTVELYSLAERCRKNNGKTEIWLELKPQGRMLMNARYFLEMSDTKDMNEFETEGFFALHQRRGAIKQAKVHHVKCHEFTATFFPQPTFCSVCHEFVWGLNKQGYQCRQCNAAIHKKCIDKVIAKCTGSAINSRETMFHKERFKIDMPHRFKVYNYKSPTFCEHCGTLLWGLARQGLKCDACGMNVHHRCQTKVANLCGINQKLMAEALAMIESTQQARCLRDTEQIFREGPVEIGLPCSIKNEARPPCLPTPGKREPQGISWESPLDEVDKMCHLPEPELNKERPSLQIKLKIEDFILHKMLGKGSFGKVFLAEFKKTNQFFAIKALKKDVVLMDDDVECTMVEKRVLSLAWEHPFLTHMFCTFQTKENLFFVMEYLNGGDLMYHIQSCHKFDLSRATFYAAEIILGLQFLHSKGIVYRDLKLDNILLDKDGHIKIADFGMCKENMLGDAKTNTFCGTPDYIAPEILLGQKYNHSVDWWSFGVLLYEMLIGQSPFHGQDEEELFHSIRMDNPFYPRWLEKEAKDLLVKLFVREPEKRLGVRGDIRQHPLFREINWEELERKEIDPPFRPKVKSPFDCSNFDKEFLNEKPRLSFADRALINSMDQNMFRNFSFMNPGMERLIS
Protocol: Cells were cultured in RPMI medium supplemented with 10% heat-inactivated FBS and penicillin-streptomycin. For treatment, cells were incubated in either DMSO or C-232A for 30 minutes at 37 °C. Cells were fixed in ice-cold methanol, washed, and blocked with 2% BSA for 60 minutes at RT. Blocked cells were stained with either a 5 μg/mL primary PKC-θ antibody (R&D Systems, catalog MAB4368) or a 1:100 primary PKC-α antibody (R&D Systems, catalog MAB5340SP) in PBS with 1% BSA at 22 °C for 90 minutes. Donkey anti-mouse IgG antibody conjugated with Alexa Fluor 647 (Thermo Fisher Scientific, catalog A-31571) at 2 μg/mL and goat anti-rat IgG H&L antibody conjugated with Alexa Fluor 488 (Abcam, catalog ab150157) were used as secondary antibodies, respectively, in PBS with 1% BSA at 22 °C for 60 minutes. After immunostaining, the cell suspension was mixed (1:1) with ProLong Gold antifade reagent containing DAPI (Life Technologies, catalog P36935) and 5 μL of the mix was applied onto a microscope slide, covered with a coverslip, and cured overnight in the dark at RT. Samples were imaged with a Leica SP8 confocal microscope. Image analysis was performed using ImageJ software.

HIV p24 = HIV p24 digital immunoassay in culture supernatants; type: cell-based, HIV-1; conditions: Human immunodeficiency virus 1, CD4+ T, read-out: p24 EC50
Protocol: The fully automated Quanterix HD-X analyzer for single molecule detection was utilized to measure HIV p24 levels in culture supernatants (stored frozen at –80°C until use). Upon thaw, Triton X-100 was added to a final concentration of 1% to culture supernatants, incubated for 1 hour at room temperature before analysis on the same day. An in-house standard using purified HIV p24 protein was utilized in place of the standard provided in the p24 Simoa kit (Quanterix, catalog 102215). Briefly, p24 protein purchased from Advanced Biotechnologies, catalog 14-101-050, was reconstituted to 200 ng/mL in complete RPMI and stored at –80 in smaller aliquots. Standard curve was made in a […] dilution series from 40000 to 1.8 fg/ml in complete RPMI with 1% Triton X-100. All other assay reagents and assay reaction conditions followed the manufacturer’s protocol. p24 concentration in experimental samples was calculated based on a p24 calibration curve with 4-parameter curve fitting.

Structure (SMILES): Cc1ccc(C#Cc2ccc3oc(CC(C)(C)C(=O)OCC4(CO)CC(=CCC(CC(C)C)CC(C)C)C(=O)O4)cc3c2)cc1 (stereo not shown) [C-232A]
- MTD [1]: 0.3 mg/kg
- circulating fibrinogen (rhesus macaques; 1 mg/kg): decreased
- coagulation times (rhesus macaques; 1 mg/kg): prolonged
- histopathology (rhesus macaques; 1 mg/kg): hemorrhage in the lung and adrenal gland
- outcome (severe clinical signs) (rhesus macaques; 1 mg/kg, single IV infusion, 1 monkey): euthanized 8 hours postdose
- tolerability (rhesus macaques; 0.03, 0.1, and 0.3 mg/kg, single IV infusion): well tolerated
- circulating platelet counts (rhesus macaques; higher doses): < 100,000 platelets/µL
- mean platelet volume (rhesus macaques; higher doses): > 15 fL
- I-TAC in plasma ([2]; 0.03 mg/kg): 88 pg/mL
- IFN-α in plasma ([2]; 0.03 mg/kg): 90 pg/mL
- IFN-γ in plasma ([2]; 0.03 mg/kg): 43 pg/mL
- IL-1RA in plasma ([2]; 0.03 mg/kg): 169 pg/mL
- IL-1β in plasma ([2]; 0.03 mg/kg): 45 pg/mL
- IL-6 in plasma ([2]; 0.03 mg/kg): 43 pg/mL
- IL-8 in plasma ([2]; 0.03 mg/kg): 275 pg/mL
- IL-10 in plasma ([2]; 0.03 mg/kg): 42 pg/mL
- IL-18 in plasma ([2]; 0.03 mg/kg): 114 pg/mL
- MCP-1 in plasma ([2]; 0.03 mg/kg): 1900 pg/mL
- MIG in plasma ([2]; 0.03 mg/kg): 55 pg/mL
- MIP-1α in plasma ([2]; 0.03 mg/kg): 208 pg/mL
- MIP-1β in plasma ([2]; 0.03 mg/kg): 131 pg/mL
- TNF-α in plasma ([2]; 0.03 mg/kg): 56 pg/mL
- VEGF-A in plasma ([2]; 0.03 mg/kg): 107 pg/mL
- I-TAC in plasma ([2]; 0.1 mg/kg): 427 pg/mL
- IFN-α in plasma ([2]; 0.1 mg/kg): 143 pg/mL
- IFN-γ in plasma ([2]; 0.1 mg/kg): 75 pg/mL
- IL-1RA in plasma ([2]; 0.1 mg/kg): 775 pg/mL
- IL-1β in plasma ([2]; 0.1 mg/kg): 70 pg/mL
- IL-6 in plasma ([2]; 0.1 mg/kg): 126 pg/mL
- IL-8 in plasma ([2]; 0.1 mg/kg): 2531 pg/mL
- IL-10 in plasma ([2]; 0.1 mg/kg): 80 pg/mL
- IL-18 in plasma ([2]; 0.1 mg/kg): 193 pg/mL
- MCP-1 in plasma ([2]; 0.1 mg/kg): 3250 pg/mL
- MIG in plasma ([2]; 0.1 mg/kg): 64 pg/mL
- MIP-1α in plasma ([2]; 0.1 mg/kg): 160 pg/mL
- MIP-1β in plasma ([2]; 0.1 mg/kg): 428 pg/mL
- TNF-α in plasma ([2]; 0.1 mg/kg): 39 pg/mL
- VEGF-A in plasma ([2]; 0.1 mg/kg): 161 pg/mL
- I-TAC in plasma ([2]; 0.3 mg/kg): 365 pg/mL
- IFN-α in plasma ([2]; 0.3 mg/kg): 112 pg/mL
- IFN-γ in plasma ([2]; 0.3 mg/kg): 53 pg/mL
- IL-1RA in plasma ([2]; 0.3 mg/kg): 2265 pg/mL
- IL-1β in plasma ([2]; 0.3 mg/kg): 59 pg/mL
- IL-6 in plasma ([2]; 0.3 mg/kg): 76 pg/mL
- IL-8 in plasma ([2]; 0.3 mg/kg): 375 pg/mL
- IL-10 in plasma ([2]; 0.3 mg/kg): 54 pg/mL
- IL-18 in plasma ([2]; 0.3 mg/kg): 145 pg/mL
- MCP-1 in plasma ([2]; 0.3 mg/kg): 6117 pg/mL
- MIG in plasma ([2]; 0.3 mg/kg): 55 pg/mL
- MIP-1α in plasma ([2]; 0.3 mg/kg): 187 pg/mL
- MIP-1β in plasma ([2]; 0.3 mg/kg): 707 pg/mL
- TNF-α in plasma ([2]; 0.3 mg/kg): 19 pg/mL
- VEGF-A in plasma ([2]; 0.3 mg/kg): 81 pg/mL
- I-TAC in plasma ([2]; 1 mg/kg): 5602 pg/mL
- IFN-α in plasma ([2]; 1 mg/kg): 187 pg/mL
- IFN-γ in plasma ([2]; 1 mg/kg): 200 pg/mL
- IL-1RA in plasma ([2]; 1 mg/kg): 4471 pg/mL
- IL-1β in plasma ([2]; 1 mg/kg): 343 pg/mL
- IL-6 in plasma ([2]; 1 mg/kg): 3872 pg/mL
- IL-8 in plasma ([2]; 1 mg/kg): 6153 pg/mL
- IL-10 in plasma ([2]; 1 mg/kg): 82 pg/mL
- IL-18 in plasma ([2]; 1 mg/kg): 351 pg/mL
- MCP-1 in plasma ([2]; 1 mg/kg): 13,620 pg/mL
- MIG in plasma ([2]; 1 mg/kg): 658 pg/mL
- MIP-1α in plasma ([2]; 1 mg/kg): 1111 pg/mL
- MIP-1β in plasma ([2]; 1 mg/kg): 3913 pg/mL
- TNF-α in plasma ([2]; 1 mg/kg): 28 pg/mL
- VEGF-A in plasma ([2]; 1 mg/kg): 330 pg/mL
- translocation of endogenous PKC-θ from cytoplasm to cell edge (PKC-θ): efficient translocation of endogenous PKC-θ to the plasmalemma

Structure (SMILES): Cc1ccc(C#Cc2ccc(C(=O)OCC3(CO)Cc4c(-c5ccccc5)ccnc4O3)cc2)cc1 (stereo not shown) [C-233]
- EC50 (HIV p24): 428 nM
